Assay results taken from patent US9790221B2, “Heteroaryl compounds as IRAK inhibitors and uses thereof” (Merck Patent GmbH, priority 2014, dated 2017).
Structures can show the parent of a compound that is named as a salt.

Assays:
[1] = tested on: TLR7 induced IL-6 secretion in human mononuclear cells (PBMC's); test: TLR7 induced IL-6 in human PBMC's; format: cell-based; conditions: Homo sapiens, PBMC, read-out: TLR7 induced IL-6 secretion in hPBMC's (IC50)
Procedure: TLR7 Induced IL-6 in Human PBMC's
Human PBMC assay was used as one of the functional assay a to monitor the activity of IRAK1 and IRAK4 small molecule inhibitors on TLR7 induced IL-6 secretion in human mononuclear cells (PBMC's). Human PBMCs were prepared from buffy coats (whole blood enriched with leukocytes and platelets) obtained from healthy volunteers used either fresh or frozen are plated in assay media (RPMI+2% P/S/L-glu+10% HI-FBS) and pre-treated with compounds in DMSO/media (range of concentrations from 25 uM to 0.4 nM) or controls (0.25% DMSO) for 30 minutes at 37° C. in assay media. Following pre-treatment with IRAK1 and IRAK4 inhibitors, PBMC's were stimulated with TLR7 specific ligand (2 uM) overnight (16-18 hrs) at 37° C. After incubation supernatant was transferred to 384 well PE AlphaPlate-384 (6005350) and IL-6 is quantified using Perkin Elmer IL-6 Alpha LISA kit (AL223C). Plates were read on an Envision® plate reader with Alpha Technology®.

[2] = molecular target: IRAK4 (Homo sapiens (Human), UniProt Q9NWZ3); test: IRAK4 enzymatic assay; format: biochemical
Procedure, shortened: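 Radiometric streptavidin FlashPlate read: 3 h, 30° C incubation of His-TEV-IRAK4 (20 ng/well), STK1-biotin substrate (300 nM) and ATP (2 μM, [^33P]-labelled) in Hepes pH 7.0, MgCl2 10 mM, MnCl2 5 mM. Compounds from 20 µM down to 1 nM, 2% DMSO controls; reaction quenched with EDTA.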

[3] = molecular target: IRAK1 (His-TEV-IRAK1 (194-712)) (Homo sapiens (Human), UniProt P51617); test: IRAK1 enzymatic assay; format: biochemical
Procedure, shortened: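 Compounds ([…] down to 1 nM) were incubated 3 h at 30° C with His-TEV-IRAK1 (194-712, 15 ng/well) and 1 μM [33P]-labelled ATP in 50 mM Hepes pH 7.0, 10 mM MgCl2. After EDTA stop and washing, the retained autophosphorylation signal was measured by scintillation in streptavidin-coated plates.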

Sequence of IRAK4 (Q9NWZ3 whole entry): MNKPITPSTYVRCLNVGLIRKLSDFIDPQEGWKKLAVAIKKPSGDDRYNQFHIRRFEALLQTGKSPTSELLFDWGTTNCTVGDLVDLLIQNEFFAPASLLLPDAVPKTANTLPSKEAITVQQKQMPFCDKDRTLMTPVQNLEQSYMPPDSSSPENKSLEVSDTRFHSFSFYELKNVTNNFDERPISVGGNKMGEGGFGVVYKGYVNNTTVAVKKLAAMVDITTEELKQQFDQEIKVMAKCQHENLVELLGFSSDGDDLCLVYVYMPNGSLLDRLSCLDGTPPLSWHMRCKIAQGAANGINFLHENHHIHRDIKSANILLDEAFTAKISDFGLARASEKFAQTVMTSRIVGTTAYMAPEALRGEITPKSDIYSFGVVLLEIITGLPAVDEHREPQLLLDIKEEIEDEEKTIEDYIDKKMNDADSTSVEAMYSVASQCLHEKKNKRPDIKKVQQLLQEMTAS
Sequence of IRAK1 (His-TEV-IRAK1 (194-712)) (P51617 194-712): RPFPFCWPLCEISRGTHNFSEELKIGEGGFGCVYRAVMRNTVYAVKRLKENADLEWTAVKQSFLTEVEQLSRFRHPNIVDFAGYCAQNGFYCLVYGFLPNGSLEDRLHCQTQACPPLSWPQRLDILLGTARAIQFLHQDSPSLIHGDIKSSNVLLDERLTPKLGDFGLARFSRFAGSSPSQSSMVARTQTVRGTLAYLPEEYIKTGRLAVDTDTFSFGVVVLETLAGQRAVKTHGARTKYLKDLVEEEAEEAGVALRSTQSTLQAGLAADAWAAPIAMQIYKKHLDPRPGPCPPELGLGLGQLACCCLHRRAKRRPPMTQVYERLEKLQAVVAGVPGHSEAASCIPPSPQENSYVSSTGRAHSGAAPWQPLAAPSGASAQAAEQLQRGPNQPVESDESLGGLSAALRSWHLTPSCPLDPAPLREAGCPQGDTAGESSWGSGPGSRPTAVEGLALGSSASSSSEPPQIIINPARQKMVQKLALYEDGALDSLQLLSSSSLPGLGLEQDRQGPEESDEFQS

IC50 [2] | IC50 [3] | Compound | IC50 [1]
100 to 1000 nM | 100 to 1000 nM | Cn1cc(-c2cccc(-c3ncc(-c4ccn(C)n4)c(N[C@@H]4CC[C@H](N)C4)n3)c2)cn1 (racemic) [Example 107] | 100 to 1000 nM
< 100 nM | 100 to 1000 nM | Cn1cc(-c2cccc(-c3ncc(-c4cnn(C)c4)c(N[C@@H]4CC[C@H](N)C4)n3)c2)cn1 (racemic) [Example 108] | 100 to 1000 nM
< 100 nM | 100 to 1000 nM | Cn1cc(-c2cccc(-c3ncc(-c4cnn(C)c4)c(N[C@@H]4CNC[C@H]4O)n3)c2)cn1 (racemic) [Example 113] | 1000 to 5000 nM
< 100 nM | 1000 to 5000 nM | Cn1cc(-c2cccc(-c3ncc(-c4ccn(C)n4)c(N[C@@H]4CCC[C@@H](O)[C@H]4O)n3)c2)cn1 (racemic) [Example 131] | 1000 to 5000 nM
< 100 nM | 100 to 1000 nM | Cn1cc(-c2cccc(-c3ncc(-c4cnn(C)c4)c(N[C@@H]4CCC[C@@H](O)[C@H]4O)n3)c2)cn1 (racemic) [Example 133, (1R,2S,3R)-3-{5-(1-Methyl-1H-pyrazol-4-yl)-2-[3-(1-methyl-1H-pyrazol-4-yl)-phenyl]-pyrimidin-4-ylamino}-cyclohexane-1,2-diol] | 100 to 1000 nM
< 100 nM | < 100 nM | Cn1cc(-c2cccc(-c3ncc(-c4cnn(C)c4)c(O[C@@H]4CCC[C@@H](N)[C@@H]4O)n3)c2)cn1 (racemic) [Example 134, (1S,2R,6R)-2-Amino-6-{5-(1-methyl-1H-pyrazol-4-yl)-2-[3-(1-methyl-1H-pyrazol-4-yl)-phenyl]-pyrimidin-4-yloxy}-cyclohexanol] | < 100 nM
< 100 nM | < 100 nM | Cn1cc(-c2cccc(-c3ncc(-c4cnn(C)c4)c(N[C@H]4CCC[C@@H](O)C4)n3)c2)cn1 (racemic) [Example 161] | 100 to 1000 nM
< 100 nM | 100 to 1000 nM | Cn1cc(-c2cccc(-c3ncc(-c4cnn(C)c4)c(N[C@H]4CCC[C@H](O)C4)n3)c2)cn1 (racemic) [Example 162] | 100 to 1000 nM
< 100 nM | 1000 to 5000 nM | Cn1cc(-c2cccc(-c3ncc(-c4cnn(C)c4)c(NC4CCC(O)C4)n3)c2)cn1 (racemic) [Example 167] | 1000 to 5000 nM
< 100 nM | > 5000 nM | CN[C@H]1CCC[C@H](Nc2nc(-c3cccc(-c4cnn(C)c4)c3)ncc2-c2cnn(C)c2)[C@@H]1O (racemic) [Example 281, (1R,2S,6S)-2-Methylamino-6-{5-(1-methyl-1-pyrazol-4-yl)-2-[3-(1-methyl-1H-pyrazol-4-yl)-phenyl]-pyrimidin-4-ylamino}-cyclohexanol] | 1000 to 5000 nM
< 100 nM | 100 to 1000 nM | Cn1cc(-c2cccc(-c3ncc(-c4cnn(C)c4)c(N[C@H]4CCC[C@H](F)[C@H]4O)n3)c2)cn1 (single isomer, unassigned) [Example 285] | 100 to 1000 nM
< 100 nM | 100 to 1000 nM | Cn1cc(-c2cccc(-c3ncc(-c4cnn(C)c4)c(N[C@@H]4CCC[C@@H](F)[C@@H]4O)n3)c2)cn1 (single isomer, unassigned) [Example 286] | 100 to 1000 nM
< 100 nM | 100 to 1000 nM | Cn1cc(-c2cccc(-c3ncc(-c4cnn(C)c4)c(N[C@H]4CCCC[C@@H](O)[C@H]4O)n3)c2)cn1 (stereo in doubt) [Example 248] | 100 to 1000 nM
100 to 1000 nM | > 5000 nM | Cn1cc(-c2cccc(-c3ccc(-c4cnn(C5CCNCC5)c4)cn3)c2)cn1 [Example 1, 2-[3-(1-Methyl-1H-pyrazol-4-yl)-phenyl]-5-(1-piperidin-4-yl-1H-pyrazol-4-yl)-pyridine Hydrochloride] | 1000 to 5000 nM
100 to 1000 nM | 100 to 1000 nM | Cn1cc(-c2cccc(-c3ncc(-c4cnn(C)c4)c(NCC4CCNCC4)n3)c2)cn1 [Example 7, {5-(1-Methyl-1H-pyrazol-4-yl)-2-[3-(1-methyl-1H-pyrazol-4-yl)-phenyl]-pyrimidin-4-yl}-piperidin-4-ylmethyl-amine] | 1000 to 5000 nM
